Laboratory results published in patent US20070219231A1, “Quinolonecarboxylic acid compounds, preparation methods and pharmaceutical uses thereof” (priority 2005, published 2007).

Columns and labels:
Test in all cases: MIC, two-fold plate dilution method
Assay type in all cases: cell-based
S. aureus ATTC 25923 = test system: S. aureus ATTC 25923; set-up: unit not given here; details: S. aureus ATTC 25923, Gram-positive; Muener-Hinton medium
Excerpt: (§1) Two-fold plate dilution method is used for determination of activity, with Muener-Hinton medium (DIFCO) as the culture medium and clinically isolated pathogenic strain, quality control strain and standard strain (provided by National Institute for the Control of Pharmaceutical and Biological Products) as test strains.

S. pneumoniae 98 = test system: S. pneumoniae 98; set-up: unit not given here; details: S. pneumoniae 98, Gram-positive; Muener-Hinton medium
Excerpt: (§2) . The pharmaceutically acceptable salts or hydrates thereof have the same antibacterial activity.
as §1

E. coli 26 = details: E. coli 26, Gram-negative; Muener-Hinton medium
Excerpt: as §2, §1

K. pneumoniae 7 = details: K. pneumoniae 7, Gram-negative; Muener-Hinton medium
Excerpt: as §2, §1

K. pneumoniae 14 = test system: K. pneumoniae 14; set-up: unit not given here; details: K. pneumoniae 14, Gram-negative; Muener-Hinton medium
Excerpt: as §2, §1

S. pneumoniae 70 = test system: S. pneumoniae 70; set-up: unit not given here; details: S. pneumoniae 70, Gram-positive; Muener-Hinton medium
Excerpt: as §2, §1

E. coli ATTC 25922 = test system: E. coli ATTC 25922; set-up: unit not given here; details: E. coli ATTC 25922, Gram-negative; Muener-Hinton medium
Excerpt: as §2, §1

Enterococcus 755 = details: Enterococcus 755, Gram-positive; Muener-Hinton medium
Excerpt: as §2, §1

Row | Structure (SMILES) | MIC (S. aureus ATTC 25923) | MIC (S. pneumoniae 98) | MIC (E. coli 26) | MIC (K. pneumoniae 7) | MIC (K. pneumoniae 14) | MIC (S. pneumoniae 70) | MIC (E. coli ATTC 25922) | MIC (Enterococcus 755)
1 | Nc1c(F)c(N2C[C@@H]3CCCN[C@@H]3C2)c(OC(F)F)c2c1c(=O)c(C(=O)O)cn2C1CC1 (relative stereo) [Embodiment 21, 5-Amino-1-cyclopropyl-8-difluoromethoxyl-7-(cis-2,8-diazabicyclo[4,3,0]nonane-8-yl)-6-fluoro-1,4-dihydro-4-oxoquinoline-3-carboxylic acid] |  |  | <0.00 g/mL |  |  |  |  | 
2 | Cl.Nc1c(F)c(N2C[C@@H]3CCCN[C@@H]3C2)c(OC(F)F)c2c1c(=O)c(C(=O)O)cn2C1CC1 [Embodiment 17, 5-amino-1-cyclopropyl-8-difluoromethoxyl-7-[(1S,6S)-2,8-diazabicyclo[4,3,0]nonane-8-yl]-6-fluoro-1,4-dihydro-4-oxoquinoline-3-carboxylic acid hydrochloride] |  | 0.01 | 0.01 g/mL | 0.01 g/mL | 0.01 | 0.01 | 0.01 | 0.01 g/mL
3 | Cl.Nc1c(F)c(N2C[C@H]3CCCN[C@H]3C2)c(OC(F)F)c2c1c(=O)c(C(=O)O)cn2C1CC1 [Embodiment 18, 5-Amino-1-cyclopropyl-8-difluoromethoxyl-7-[(1R,6R)-2,8-diazabicyclo[4,3,0]nonane-8-yl]-6-fluoro-1,4-dihydro-4-oxoquinoline-3-carboxylic acid hydrochloride] |  | 0.12 | 0.01 g/mL | 0.01 g/mL | 0.01 |  | 0.01 | 

Second part, led by results:

Row | MIC (S. aureus ATTC 25923) | MIC (S. pneumoniae 98) | Structure (SMILES) | MIC (E. coli 26) | MIC (K. pneumoniae 7) | MIC (K. pneumoniae 14) | MIC (S. pneumoniae 70) | MIC (E. coli ATTC 25922) | MIC (Enterococcus 755)
4 | 0.12 | 0.12 | Cl.O=C(O)c1cn(C2CC2)c2c(OC(F)F)c(N3C[C@@H]4CCCN[C@@H]4C3)c(F)cc2c1=O (racemic) [Embodiment 15, 1-Cyclopropyl-8-difluoromethoxyl-7-[cis-2,8-diazabicyclo[4,3,0]nonane-8-yl]-6-fluoro-1,4-dihydro-4-oxoquinoline-3-carboxylic acid hydrochloride] |  |  |  |  |  | 
5 |  | 0.01 | Cl.O=C(O)c1cn(C2CC2)c2c(OC(F)F)c(N3C[C@@H]4CCCN[C@@H]4C3)c(F)cc2c1=O [Embodiment 13, 1-cyclopropyl-8-difluoromethoxyl-7-[(1S,6S)-2,8-diazabicyclo[4,3,0]nonane-8-yl]-6-fluoro-1,4-dihydro-4-oxoquinoline-3-carboxylic acid hydrochloride] | 0.01 g/mL | 0.01 g/mL | 0.01 | 0.12 | 0.01 | 
6 |  | 0.01 | Cl.O=C(O)c1cn(C2CC2)c2c(OC(F)F)c(N3C[C@H]4CCCN[C@H]4C3)c(F)cc2c1=O [Embodiment 14, 1-cyclopropyl-8-difluoromethoxyl-7-[(1R,6R)-2,8-diazabicyclo[4,3,0]nonane-8-yl]-6-fluoro-1,4-dihydro-4-oxoquinoline-3-carboxylic acid hydrochloride] |  |  |  |  | 0.01 | 
